In patent publication US12459930B2, “Compounds for the inhibition of unregulated cell growth” (GODAVARI BIOREFINERIES LIMITED, priority 2018, dated 2025):
“And” between values parts separate entries of the source, which are not always exact repeats. Equal entries are not always repeated. Structures can show the parent of a compound that is named as a salt. Where two headings read alike, the source gives them in different places.

Assays:
[1] = tested on: MDAMB231 breast cancer cell line; assay: In vitro antiproliferative assay (MTT assay), MDAMB231; type: cell-based; details: 48 hrs drug incubation, read-out: IC50 in micromolar, MDAMB231 (MTT assay)
Protocol: (§1) MTT assay is a simple and sensitive assay where, metabolic reducing activity of the cells is measured. The increase of this activity in time is taken as a parameter of cell growth. If treatment with a drug impairs this increase, the action is a consequence of growth inhibition, cell killing or both. […] All cell lines were cultured in a 37° C. incubator with a 5% CO2 environment. Compounds were dissolved in DMSO with a concentration of 0.1M (stock solution). Cells were seeded into 96-well plates at suitable plating efficiency.
(§2) Following plating efficiencies were standardized for MTT assay:
(§3) In the MTT procedure, the cells were plated in 96 well plates as per predetermined plating efficiency (Table1). The plates were then incubated for 24 hrs in 5% CO2 atmosphere at 37° C. Appropriate concentrations of the drugs were then added to the plate and further incubation was carried out for 48 hrs (in 5% CO2 atmosphere at 37° C.). The assay plate was then centrifuged twice at 3000 rpm for 3 mins and supernatant was then discarded. 100 ul of MTT solution (0.5 mg/ml) was then added to each well of the plate and it was further incubated for 4 hrs (in 5% CO2 atmosphere at 37° C.) Following 4 hr incubation, the plate was then centrifuged twice, and supernatant was aspirated off very carefully. 200 ul of DMSO was then added to each well to solubilize. MTT crystals and mixed well by shaking the plate. XY graph of log percent viability was then plotted against log drug concentration.

[2] = tested on: PC3 prostate cancer cell line; assay: In vitro antiproliferative assay (MTT assay), PC3; type: cell-based; details: 48 hrs drug incubation, read-out: IC50 in micromolar, PC3 (MTT assay)
Protocol: as §1, §2, §3

[3] = tested on: DU145 prostate cancer cell line; assay: In vitro antiproliferative assay (MTT assay), DU145; type: cell-based; details: 48 hrs drug incubation, read-out: IC50 in micromolar, DU145 (MTT assay)
Protocol: as §1, §2, §3

[4] = tested on: MDAMB231 breast cancer cell line; assay: Soft agar colony-formation assay, MDAMB231; type: cell-based; details: 1 week, Alamar Blue, read-out: IC50 in micromolar, MDAMB231 (Soft Agar Assay)
Protocol: (§4) The Soft Agar Colony-formation Assay is an anchorage-independent growth assay in soft agar, which is one of the most stringent assays for detecting malignant transformation of cells. For this assay, malignant cells are cultured with appropriate controls in soft agar medium for 1-2 weeks. Following this incubation period, formed colonies can either be analyzed morphologically using cell stain and quantifying the number of colonies formed.
(§5) Briefly, for Soft Agar Assay a mixture of 50 ul of 2× medium (taken appropriately as per cell line) and 50 ul of 1.2% Bacto Agar were plated on to each well of 96 well micro titer assay plate. 10 ul of cells (of specific plating efficiency pre standardized for respective cell line) were mixed with 20 ul of 2× medium and 30 ul of 0.8% of Bacto Agar and 1.6 ul of drug (of appropriate concentration) in a vial and transferred to the solidified pre layers of the assay plates. The cells were then allowed to grow and form colonies at 37° C. and 5% C02 for 1 week. An intermittent feeding with 50 ul of appropriate 2× medium was performed after 3 days of experimental set up. 16 ul of Alamar Blue (1.5 mg/ml) was then added to all the wells to quantify the developed colonies. The plates were incubated for 24 hrs at 37° C. Absorbance was then measured at 630 nm. XY graph of log Percent viability was then plotted against log drug concentration.
(§6) Following plating efficiencies were standardized for Soft Agar Assay: […]

[5] = tested on: PC3 prostate cancer cell line; assay: Soft agar colony-formation assay, PC3; type: cell-based; details: 1 week, Alamar Blue, read-out: IC50 in micromolar, PC3 (Soft Agar Assay)
Protocol: as §4, §5, §6

[6] = tested on: PC3 spheres (cancer stem cells); assay: In vitro sphere-forming assay (cancer stem cells), PC3 in Prostosphere media; details: for 3D sphere count of PC3 in Prostosphere media: 2000 cells/well, n = 6 ± S.D; for viability at 0.025 µM: read-out: % Viability of spheres (PC3), 0.025 uM; for viability at 0.25 µM: read-out: % Viability of spheres (PC3), 0.25 uM; for viability at 2.5 µM: read-out: % Viability of spheres (PC3), 2.5 uM; for viability at 25 µM: read-out: % Viability of spheres (PC3), 25 uM; for viability at 0.0025 µM: read-out: % Viability of spheres (PC3), 0.0025 uM
[7] = tested on: MDAMB231 spheres (cancer stem cells); assay: In vitro sphere-forming assay (cancer stem cells), MDAMB231 in Mammosphere media; details: for 3D sphere count of MDAMB231 in Mammosphere media: 2000 cells/well, n = 6 ± S.D; for viability at 0.0025 µM / viability at 0.025 µM / viability at 0.25 µM / viability at 2.5 µM / viability at 25 µM: Homo sapiens, MDA-MB-231, read-out: % Viability of spheres (MDAMB231)
Protocol: In Vitro Sphere-forming Assay: Sphere assay measures the ability of cancer stem cells (CSCs) to form spheres in specially designed serum-free medium.
Mammosphere Media Preparation (For 100 mL): 1 g methyl cellulose autoclaved with magnetic stirrer, 100 ml plain media (MEBM) was added and dissolved under magnetic stirring. After complete dissolution FGF—80 μL, EGF—40 μL, Penstrep—1 mL, Heparin—400 μL was added.
Procedure—The cells were trypsinised and made into single-cell suspension by passing through cell strainers (100 μl and 40 μl, respectively), The cells were diluted at a concentration of 2000 cells/100 μL and suspended in either Mammosphere (for breast cell lines) or Prostosphere (for prostate cell lines). 100 μL of this suspension was added into each well of 96-well suspension plates and incubated at 37 C, 50 CO2 for 24 hrs. Appropriate concentrations of the drugs (2 L) were added into respective wells with 100 μL of stem cell culture medium. Plates were incubated at 37° C., 50% CO2 for 72 hrs. After incubation, 2.5 μL of the respective drug concentration and 50 μL of stem cell culture medium were added into each well and the plates were further incubated at 37° C., 500 CO2 for 72 hrs. 3 μL of the respective drug concentration was added with 50 μL of stem cell culture medium again after incubation and plates were reincubated for 72 hrs at 37° C., 500 CO2. Number of primary spheres formed for each concentration were counted. The spheres were converted to 0 viability of spheres compared to untreated (Growth Control with DMSO, GCD).

[8] = Homo sapiens, MDA-MB-231, 168 h

Row | SMILES | IC50 ([1]; Homo sapiens, MDA-MB-231, 48 h) [µM] | IC50 ([3]; Homo sapiens, DU-145, 48 h) [µM] | IC50 ([5]; 168 h) [µM] | 3D sphere count of PC3 in Prostosphere media ([6]; 0.025 uM) | 3D sphere count of PC3 in Prostosphere media ([6]; 0.25 uM) | 3D sphere count of PC3 in Prostosphere media ([6]; 2.5 uM) | 3D sphere count of PC3 in Prostosphere media ([6]; 25 uM) | viability at 0.025 µM ([6]; GCD = 100% viability) [%] | viability at 0.25 µM ([6]; GCD = 100% viability) [%] | viability at 2.5 µM ([6]; GCD = 100% viability) [%] | viability at 25 µM ([6]; GCD = 100% viability) [%] | IC50 ([2]; 48 h) [µM] | 3D sphere count of MDAMB231 in Mammosphere media ([7]; 0.0025 uM) | 3D sphere count of MDAMB231 in Mammosphere media ([7]; 0.025 uM) | 3D sphere count of MDAMB231 in Mammosphere media ([7]; 0.25 uM) | 3D sphere count of MDAMB231 in Mammosphere media ([7]; 2.5 uM) | 3D sphere count of MDAMB231 in Mammosphere media ([7]; 25 uM) | viability at 0.0025 µM [7] [%] | viability at 0.025 µM [7] [%] | viability at 0.25 µM [7] [%] | further results
1 | N.N.[Cl][Pt][Cl] [Cisplatin, reference compound] | – | – | – | – | – | – | – | – | – | – | – | – | – | – | – | – | – | – | – | – | IC50 [1]: 29.4 µM; IC50 [2]: 24 µM; IC50 [3]: 29.8 µM; IC50 [4]: 26.2 µM; IC50 [5]: 33.4 µM; 3D sphere count of PC3 in Prostosphere media ([6]; 250 uM): 29(±2) and 29(±5) and 25(±2) and 27(±2); 3D sphere count of MDAMB231 in Mammosphere media ([7]; 250 uM): 24(±3) and 25(±2)
2 | CCOC(=O)N1CCN(CCCCCCOc2c3c(c(-c4ccc5c(c4)OCO5)c4cc(OC)c(OC)cc24)C(=O)OC3)CC1 [Formula IX, ethyl 4-(6-(9-(benzo[d][1,3]dioxol-5-yl)-1,3-dihydro-6,7-dimethoxy-1-oxonaphtho[2,3-c]furan-4-yloxy)hexyl)piperazine-1-carboxylate Hydrochloride] | 10.9 | 10.7 | 3.29 | – | – | – | – | – | – | – | – | – | – | – | – | – | – | – | – | – | IC50 ([4]; hydrochloride): 0.327 µM
3 | COc1cc2c(OCCCCN3CCOCC3)c3c(c(-c4ccc5c(c4)OCO5)c2cc1OC)C(=O)OC3 [Formula VI, 4-(4-morpholinobutoxy)-9-(benzo[d][1,3]dioxol-5-yl)-6,7-dimethoxynaphtho[2,3-c]furan-1(3H)-one] | – | – | – | 49(±2) | 41(±2) | 37(±2) | 27(±2) | 57 | 48 | 43 | 31 | – | – | – | – | – | – | – | – | – | IC50 [1]: 10.9 µM; IC50 [3]: 4.05 µM; IC50 [4]: 2.69 µM; IC50 [5]: 2.65 µM; 3D sphere count of PC3 in Prostosphere media ([6]; 250 uM): 0(±0); viability at 250 µM ([6]; read-out: % Viability of spheres (PC3), 250 uM, GCD = 100% viability): 0%
4 | O=C(CCCOc1ccc(-c2ccc3c(c2)OCO3)c2ccccc12)N1CCOCC1 [Formula XV, 4-(1-(benzo[d][1,3]dioxol-5-yl)naphthalen-4-yloxy)-1-morpholinobutan-1-one] | 4.95 | 2.51 | 3.06 | – | – | – | – | – | – | – | – | 7.82 | 53(±2) | 51(±5) | 40(±6) | 31(±3) | 16(±4) | 64 | 62 | 49 | IC50 [4, 8]: 5.36 µM; viability at 2.5 µM [7]: 38%; viability at 25 µM [7]: 19%
5 | c1cnc2c(OCCCCCCN3CCOCC3)ccc(-c3ccc4c(c3)OCO4)c2c1 [Formula XVI, 8-(6-morpholinohexyloxy)-5-(benzo[d][1,3]dioxol-5-yl)quinoline] | 3.8 | 3.52 | – | 53(±4) | 42(±4) | 34(±3) | 25(±4) | 63 | 50 | 40 | 30 | 5.52 | 61(±3) | 51(±3) | 42(±3) | 37(±3) | 22(±4) | 71 | 59 | 49 | 3D sphere count of PC3 in Prostosphere media ([6]; 0.0025 uM): 72(±6); viability at 0.0025 µM ([6]; GCD = 100% viability): 86%; viability at 2.5 µM [7]: 43%; viability at 25 µM [7]: 25%
6 | c1cnc2c(OCCCCNC3CCCCC3)ccc(-c3ccc4c(c3)OCO4)c2c1 [Formula XVII, N-(4-(5-(benzo[d][1,3]dioxol-5-yl)quinolin-8-yloxy)butyl)cyclohexanamine] | 2.13 | 1.99 | – | – | – | – | – | – | – | – | – | 2.82 | – | – | – | – | – | – | – | – | –
7 | c1cc2c(cc1-c1ccc(OCCN3CCOCC3)c3c1CCCC3)OCO2 [Formula XXI, 4-(2-(5-(benzo[d][1,3]dioxol-5-yl)-1,2,3,4-tetrahydronaphthalen-8-yloxy)ethyl) morpholine] | 4.2 | 4.26 | 2.75 | 54(±2) | 50(±2) | 45(±3) | 36(±2) | 68 | 63 | 57 | 45 | 3.86 | – | – | – | – | – | – | – | – | IC50 [4, 8]: 4.34 µM; 3D sphere count of PC3 in Prostosphere media ([6]; 0.0025 uM): 62(±4); viability at 0.0025 µM ([6]; GCD = 100% viability): 78%
8 | C=CCNCCCCCCOc1ccc(-c2ccc3c(c2)OCO3)c2c1CCCC2 [Formula XXII, 6-(5-(benzo[d][1,3]dioxol-5-yl)-1,2,3,4-tetrahydronaphthalen-8-yloxy)-N-allylhexan-1-amine] | 1.35 | 1.48 | – | 44(±4) | 36(±3) | 25(±3) | 14(±3) | 52 | 43 | 30 | 17 | 2.45 | 47(±3) | 34(±3) | 24(±4) | 9(±2) | 0(±0) | 55 | 39 | 28 | 3D sphere count of PC3 in Prostosphere media ([6]; 0.0025 uM): 55(±3); viability at 0.0025 µM ([6]; GCD = 100% viability): 66%; viability at 2.5 µM [7]: 10%; viability at 25 µM [7]: 0%
